These results are taken from paper PMC3230241 (Nature biotechnology, 2011).

Each structure is given as a SMILES string.

The experiment has as its target CHK2 (Homo sapiens, UniProt O96017). As to the kind of experiment: HotSpot radiometric kinase assay, CHK2. The conditions noted are these: compound 0.5 μM, 10 μM ATP; Fig. 4b. Type of experiment: biochemical.

CHK2, sequence (O96017 whole entry): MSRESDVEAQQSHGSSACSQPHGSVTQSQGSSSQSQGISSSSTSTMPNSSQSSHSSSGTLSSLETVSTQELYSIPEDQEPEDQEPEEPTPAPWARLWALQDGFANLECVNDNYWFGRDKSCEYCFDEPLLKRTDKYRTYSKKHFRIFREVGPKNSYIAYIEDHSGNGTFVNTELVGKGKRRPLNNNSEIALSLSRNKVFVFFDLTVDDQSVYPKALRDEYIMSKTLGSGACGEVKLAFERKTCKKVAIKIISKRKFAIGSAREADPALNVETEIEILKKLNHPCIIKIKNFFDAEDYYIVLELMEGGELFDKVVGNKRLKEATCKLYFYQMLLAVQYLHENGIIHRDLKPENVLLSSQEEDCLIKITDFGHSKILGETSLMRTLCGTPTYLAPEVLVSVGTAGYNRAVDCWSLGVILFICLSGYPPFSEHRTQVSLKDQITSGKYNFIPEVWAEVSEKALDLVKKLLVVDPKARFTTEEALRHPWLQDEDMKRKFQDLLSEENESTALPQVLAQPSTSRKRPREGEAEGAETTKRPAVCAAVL

With `COc1cc2ncnc(Nc3ccc(OCc4ccccc4)cc3)c2cc1OC` [EGFR/ErbB-2 Inhibitor, 4-(4-benzyloxyanilino)-6,7-dimethoxyquinazoline], the “inhibition of CHK2” value is listed as “potent inhibition”.
